Results reported in US20210128609A1, “ONCOLOGY TREATMENTS USING ZINC AGENTS” (XYLONIX IP HOLDINGS PTE. LTD., priority 2018, published 2021).

Columns and labels:
Assay type in all cases: cell-based
A549 = assay: CellTiter-Glo cell viability, A549
Procedure: (§1) The 50% inhibitory concentration (IC50) was determined in the cancer cell lines using CellTiter-Glo luminescent cell viability assay after incubation with different concentrations of active agents. Each cell line was treated with active Zn(II) agent, a standard chemotherapy drug as reference control, and culture medium as vehicle control. Cell Lines. All cell lines were cultured in media supplemented with 10-15% FBS, at a temperature of 37° C., 5% CO2, and 95% humidity. The reference control drug for all cell lines was cisplatin, to be used for genomic analysis. The cell lines tested, the tissue of origin are shown below in Table 1: Procedure for Determining Half Maximal Inhibition Concentration IC50 • 1. Harvested cells during the logarithmic growth period and count cell number using Count-star. • 2. Adjusted cell concentrations to 4.44×10^4 cells/mL with respective culture medium. • 3. Added 90 μL cell suspensions to two 96-well plates (plates A and B) with the final cell density of 4×10^3 cells/well. (cell concentration was adjusted according to the data base or density optimization assay.) • 4a. […]

NCI-H460 = assay: CellTiter-Glo cell viability, NCI-H460
Procedure: (§2) The 50% inhibitory concentration (IC50) was determined in the cancer cell lines using CellTiter-Glo luminescent cell viability assay after incubation with different concentrations of active agents. Each cell line was treated with active Zn(II) agent, a standard chemotherapy drug as reference control, and culture medium as vehicle control. Cell Lines. All cell lines were cultured in media supplemented with 10-15% FBS, at a temperature of 37° C., 5% CO2, and 95% humidity. The reference control drug for all cell lines was cisplatin, to be used for genomic analysis. The cell lines tested, the tissue of origin are shown below in Table 1: Procedure for Determining Half Maximal Inhibition Concentration IC50 • 1. Harvested cells during the logarithmic growth period and count cell number using Count-star. • 2. Adjusted cell concentrations to 4.44×10^4 cells/mL with respective culture medium. • 3. Added 90 μL cell suspensions to two 96-well plates (plates A and B) with the final cell density of 4×10^3 cells/well. (cell concentration was adjusted according to the data base or density optimization assay.) • 4a. Next day: For the plates of TO reading: • 1) Added 10 μL culture medium to each well of plate A for TO reading. • 2) Equilibrated the plate and its content at RT for approximately 30 min. • 3) Added 50 μL CellTiter-Glo reagent to each well. • 4) Mixed content for 5 min on an orbital shaker to induce cell lysis. • 5) Allowed the plate to incubate at RT for 20 min to stabilize luminescent signal. • 6) Recorded luminescence (TO) using EnVision Multi Label Reader. • 4b. For the plates of test reading: • 1) Prepared 10× solution of Zn(II) agent test article. […] The formula for calculating surviving rate is shown below and the absolute IC50 (EC50) was calculated according to the dose-response curve generated by GraphPad Prism 5.0. • 12) The surviving rate (%)=(LumTest article−LumMedium control)/(LumNon-treated−LumMedium control)×100%.

MES-SA/DX5 = assay: CellTiter-Glo cell viability, MES-SA/DX5
Procedure: as §2

DU 145 = assay: CellTiter-Glo cell viability, DU 145
Procedure: as §2

SK-OV-3 = assay: CellTiter-Glo cell viability, SK-OV-3
Procedure: as §1

ML-2 = assay: CellTiter-Glo cell viability, ML-2
Procedure: as §2

PC-3 = assay: CellTiter-Glo cell viability, PC-3
Procedure: as §2

JVM-3 = assay: CellTiter-Glo cell viability, JVM-3
Procedure: as §2

Hep G2 = assay: CellTiter-Glo cell viability, Hep G2
Procedure: as §2

OVCAR-3 = assay: CellTiter-Glo cell viability, OVCAR-3
Procedure: as §2

DU4475 = assay: CellTiter-Glo cell viability, DU4475
Procedure: as §2

HeLa = assay: CellTiter-Glo cell viability, HeLa
Procedure: as §1

MOLM-16 = assay: CellTiter-Glo cell viability, MOLM-16
Procedure: as §2

L-363 = assay: CellTiter-Glo cell viability, L-363
Procedure: as §2

K-562 = assay: CellTiter-Glo cell viability, K-562
Procedure: as §2

HCT-116 = assay: CellTiter-Glo cell viability, HCT-116
Procedure: as §2

JHH-7 = assay: CellTiter-Glo cell viability, JHH-7
Procedure: as §2

Kasumi-1 = assay: CellTiter-Glo cell viability, Kasumi-1
Procedure: as §2

PANC-1 = assay: CellTiter-Glo cell viability, PANC-1
Procedure: as §2

OCI-LY-19 = assay: CellTiter-Glo cell viability, OCI-LY-19
Procedure: as §2

Molt-4 = assay: CellTiter-Glo cell viability, Molt-4
Procedure: as §2

NALM-6 = assay: CellTiter-Glo cell viability, NALM-6
Procedure: as §2

MOLP8 = assay: CellTiter-Glo cell viability, MOLP8
Procedure: as §2

EOL-1 = assay: CellTiter-Glo cell viability, EOL-1
Procedure: as §2

THP-1 = assay: CellTiter-Glo cell viability, THP-1
Procedure: as §2

AsPC-1 = assay: CellTiter-Glo cell viability, AsPC-1
Procedure: as §2

[1] = 96 h, top conc. 50 μg/mL Zn(II) agent, 100 μM cisplatin

Structure (SMILES): N.N.[Cl][Pt][Cl] [Cisplatin]
- % inhibition at top conc. (A549; [1]): 97.57%
- HillSlope (A549; 96 h dose-response fit): −0.93
- Absolute IC50 (NCI-H460; 96 h, CellTiter-Glo): 0.15 µg/mL
- % inhibition at top conc. (NCI-H460; [1]): 99.98%
- HillSlope (NCI-H460; 96 h dose-response fit): −1.63
- Absolute IC50 (MES-SA/DX5; 96 h, CellTiter-Glo): 0.56 µg/mL
- % inhibition at top conc. (MES-SA/DX5; [1]): 99.97%
- HillSlope (MES-SA/DX5; 96 h dose-response fit): −1.75
- Absolute IC50 (DU 145; 96 h, CellTiter-Glo): 0.20 µg/mL
- % inhibition at top conc. (DU 145; [1]): 99.24%
- HillSlope (DU 145; 96 h dose-response fit): −2.37
- % inhibition at top conc. (SK-OV-3; [1]): 98.22%
- HillSlope (SK-OV-3; 96 h dose-response fit): −1.68
- Absolute IC50 (ML-2; 96 h, CellTiter-Glo): 0.32 µg/mL
- % inhibition at top conc. (ML-2; [1]): 100.00%
- HillSlope (ML-2; 96 h dose-response fit): −3.28
- Absolute IC50 (PC-3; 96 h, CellTiter-Glo): 1.13 µg/mL
- % inhibition at top conc. (PC-3; [1]): 93.27%
- HillSlope (PC-3; 96 h dose-response fit): −1.55
- Absolute IC50 (JVM-3; 96 h, CellTiter-Glo): 0.14 µg/mL
- % inhibition at top conc. (JVM-3; [1]): 99.99%
- HillSlope (JVM-3; 96 h dose-response fit): −1.70
- Absolute IC50 (Hep G2; 96 h, CellTiter-Glo): 0.55 µg/mL
- % inhibition at top conc. (Hep G2; [1]): 98.96%
- HillSlope (Hep G2; 96 h dose-response fit): −0.90
- Absolute IC50 (OVCAR-3; 96 h, CellTiter-Glo): 1.08 µg/mL
- % inhibition at top conc. (OVCAR-3; [1]): 97.70%
- HillSlope (OVCAR-3; 96 h dose-response fit): −2.96
- Absolute IC50 (DU4475; 96 h, CellTiter-Glo): 0.31 µg/mL
- % inhibition at top conc. (DU4475; [1]): 99.94%
- HillSlope (DU4475; 96 h dose-response fit): −2.54
- % inhibition at top conc. (HeLa; [1]): 99.91%
- HillSlope (HeLa; 96 h dose-response fit): −1.70
- Absolute IC50 (MOLM-16; 96 h, CellTiter-Glo): 0.15 µg/mL
- % inhibition at top conc. (MOLM-16; [1]): 99.96%
- HillSlope (MOLM-16; 96 h dose-response fit): −1.65
- Absolute IC50 (L-363; 96 h, CellTiter-Glo): 0.83 µg/mL
- % inhibition at top conc. (L-363; [1]): 99.98%
- HillSlope (L-363; 96 h dose-response fit): −2.08
- Absolute IC50 (K-562; 96 h, CellTiter-Glo): 1.02 µg/mL
- % inhibition at top conc. (K-562; [1]): 97.71%
- HillSlope (K-562; 96 h dose-response fit): −1.81
- Absolute IC50 (HCT-116; 96 h, CellTiter-Glo): 2.89 µg/mL
- % inhibition at top conc. (HCT-116; [1]): 91.19%
- HillSlope (HCT-116; 96 h dose-response fit): −2.03
- Absolute IC50 (JHH-7; 96 h, CellTiter-Glo): 0.44 µg/mL
- % inhibition at top conc. (JHH-7; [1]): 99.16%
- HillSlope (JHH-7; 96 h dose-response fit): −0.80
- Absolute IC50 (Kasumi-1; 96 h, CellTiter-Glo): 0.71 µg/mL
- % inhibition at top conc. (Kasumi-1; [1]): 99.98%
- HillSlope (Kasumi-1; 96 h dose-response fit): −1.18
- Absolute IC50 (PANC-1; 96 h, CellTiter-Glo): 1.08 µg/mL
- % inhibition at top conc. (PANC-1; [1]): 96.35%
- HillSlope (PANC-1; 96 h dose-response fit): −0.62
- Absolute IC50 (OCI-LY-19; 96 h, CellTiter-Glo): 0.04 µg/mL
- % inhibition at top conc. (OCI-LY-19; [1]): 99.99%
- HillSlope (OCI-LY-19; 96 h dose-response fit): −2.61
- Absolute IC50 (Molt-4; 96 h, CellTiter-Glo): 0.10 µg/mL
- % inhibition at top conc. (Molt-4; [1]): 99.99%
- HillSlope (Molt-4; 96 h dose-response fit): −2.01
- Absolute IC50 (NALM-6; 96 h, CellTiter-Glo): 0.21 µg/mL
- % inhibition at top conc. (NALM-6; [1]): 99.64%
- HillSlope (NALM-6; 96 h dose-response fit): −2.22
- Absolute IC50 (MOLP8; 96 h, CellTiter-Glo): 0.16 µg/mL
- % inhibition at top conc. (MOLP8; [1]): 99.98%
- HillSlope (MOLP8; 96 h dose-response fit): −2.16
- Absolute IC50 (EOL-1; 96 h, CellTiter-Glo): 0.16 µg/mL
- % inhibition at top conc. (EOL-1; [1]): 99.99%
- HillSlope (EOL-1; 96 h dose-response fit): −1.87
- Absolute IC50 (THP-1; 96 h, CellTiter-Glo): 0.39 µg/mL
- % inhibition at top conc. (THP-1; [1]): 99.98%
- HillSlope (THP-1; 96 h dose-response fit): −3.03
- Absolute IC50 (AsPC-1; 96 h, CellTiter-Glo): 0.67 µg/mL
- % inhibition at top conc. (AsPC-1; [1]): 81.58%
- HillSlope (AsPC-1; 96 h dose-response fit): −1.47
